How the values were obtained:
CDK12/CycK = CDK12/CycK (Homo sapiens, UniProt Q9NYV4); test: Inhibition of CDK12 (ADP-Glo kinase assay); format: biochemical; conditions: 60 nM CDK12/CycK, 30 minutes pre-incubation, 1 μM ATP, 0.5 μM RBER-IRStide substrate, 1 h at 25° C., read-out: CDK12/cyclin K IC50
How it was run: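 ADP-Glo luminescence read after a 1 h, 25 °C reaction with 1 μM ATP and 0.5 μM RBER-IRStide peptide. Enzyme (60 nM) and compound were first pre-incubated 30 min; buffer 50 mM HEPES pH 7.5, 20 mM MgCl2, 3 mM MnCl2, 1% DMSO. IC50 fitted after blank subtraction.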

DM1 fibroblasts = test: Nuclear foci assay; format: cell-based; conditions: Fibroblast; DM1 fibroblasts treated for 24 hours, 11 point dilution 20 μM-19 nM, in situ hybridisation with cy3 labelled CAG10 probe
Experimental: DM1 fibroblasts were treated with compounds in an 11 point dilution series from 20 μM-19 nM for 24 hours. Following treatment, fluorescent in situ hybridisation was performed with a cy3 labelled CAG10 probe, to visualize nuclear foci and cells were analysed on a Molecular Devices plate reader with customised MetaExpress software (Ketley, A. et al. (2014). Hum Mol Genet, 23: 1551-1562). Compounds that reduced nuclear foci in a concentration dependent manner, compared to DMSO treated cells were identified.

Sequence of CDK12/CycK (Q9NYV4 whole entry): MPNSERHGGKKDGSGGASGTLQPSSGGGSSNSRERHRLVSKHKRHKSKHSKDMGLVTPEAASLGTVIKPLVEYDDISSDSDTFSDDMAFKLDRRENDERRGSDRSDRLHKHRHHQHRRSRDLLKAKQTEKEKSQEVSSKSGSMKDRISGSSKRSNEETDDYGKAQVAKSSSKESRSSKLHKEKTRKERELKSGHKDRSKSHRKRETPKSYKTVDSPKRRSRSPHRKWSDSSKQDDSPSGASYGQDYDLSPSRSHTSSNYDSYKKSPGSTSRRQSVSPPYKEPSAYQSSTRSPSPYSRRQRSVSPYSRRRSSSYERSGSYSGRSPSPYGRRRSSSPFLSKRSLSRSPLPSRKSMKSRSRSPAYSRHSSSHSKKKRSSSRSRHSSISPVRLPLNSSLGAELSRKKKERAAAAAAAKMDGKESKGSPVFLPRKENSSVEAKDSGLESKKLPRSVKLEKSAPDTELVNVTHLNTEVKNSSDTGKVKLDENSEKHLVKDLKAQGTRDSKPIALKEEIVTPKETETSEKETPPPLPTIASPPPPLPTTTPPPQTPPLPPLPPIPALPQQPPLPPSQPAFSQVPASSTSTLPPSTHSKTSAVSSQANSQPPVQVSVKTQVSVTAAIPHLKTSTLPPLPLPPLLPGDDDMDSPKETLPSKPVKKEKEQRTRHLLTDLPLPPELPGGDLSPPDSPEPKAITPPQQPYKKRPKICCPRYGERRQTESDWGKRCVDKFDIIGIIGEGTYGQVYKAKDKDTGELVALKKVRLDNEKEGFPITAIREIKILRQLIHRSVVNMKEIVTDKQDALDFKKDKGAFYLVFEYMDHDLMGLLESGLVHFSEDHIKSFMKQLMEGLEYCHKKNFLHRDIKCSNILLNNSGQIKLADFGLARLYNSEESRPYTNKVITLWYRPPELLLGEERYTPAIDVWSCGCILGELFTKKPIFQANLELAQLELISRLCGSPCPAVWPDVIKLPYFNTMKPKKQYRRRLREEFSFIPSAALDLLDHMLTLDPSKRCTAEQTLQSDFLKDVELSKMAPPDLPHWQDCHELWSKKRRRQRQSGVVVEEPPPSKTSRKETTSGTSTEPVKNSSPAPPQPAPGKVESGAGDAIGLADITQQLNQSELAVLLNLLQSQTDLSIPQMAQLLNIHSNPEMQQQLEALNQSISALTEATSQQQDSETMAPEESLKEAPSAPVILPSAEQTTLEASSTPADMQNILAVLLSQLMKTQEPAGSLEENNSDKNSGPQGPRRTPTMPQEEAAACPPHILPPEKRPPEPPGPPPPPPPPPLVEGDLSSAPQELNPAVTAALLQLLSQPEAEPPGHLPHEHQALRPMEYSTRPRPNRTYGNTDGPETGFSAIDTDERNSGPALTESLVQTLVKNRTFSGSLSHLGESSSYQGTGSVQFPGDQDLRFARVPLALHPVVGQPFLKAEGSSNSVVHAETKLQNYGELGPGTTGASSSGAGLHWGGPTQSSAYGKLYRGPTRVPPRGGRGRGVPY
Sequence of CDK12/CycK (O75909 whole entry partner): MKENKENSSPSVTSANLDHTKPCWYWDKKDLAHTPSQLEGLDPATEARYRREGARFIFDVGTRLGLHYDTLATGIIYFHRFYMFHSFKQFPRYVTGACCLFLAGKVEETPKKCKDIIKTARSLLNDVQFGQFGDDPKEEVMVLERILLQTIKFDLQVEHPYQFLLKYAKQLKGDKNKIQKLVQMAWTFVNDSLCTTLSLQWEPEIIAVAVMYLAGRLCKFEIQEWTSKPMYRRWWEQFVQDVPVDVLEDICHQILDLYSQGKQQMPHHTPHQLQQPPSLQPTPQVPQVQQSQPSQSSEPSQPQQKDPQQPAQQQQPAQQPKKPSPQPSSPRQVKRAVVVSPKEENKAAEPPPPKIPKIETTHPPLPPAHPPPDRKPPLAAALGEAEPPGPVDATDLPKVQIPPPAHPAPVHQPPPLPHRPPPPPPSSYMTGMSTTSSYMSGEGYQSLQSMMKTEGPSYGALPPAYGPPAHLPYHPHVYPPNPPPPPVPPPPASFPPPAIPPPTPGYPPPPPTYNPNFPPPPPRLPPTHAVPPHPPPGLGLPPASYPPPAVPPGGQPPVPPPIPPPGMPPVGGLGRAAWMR

| IC50 (CDK12/CycK) [nM] | SMILES | IC50 (DM1 fibroblasts) [nM] |
| --- | --- | --- |
| 100 to 1000 | CC(C)(CCl)C(=O)N1CCC[C@H]1C(=O)NCCc1cc2c(-c3cnn4ncccc34)ccnc2[nH]1 [Example 45, (S)-1-(3-Chloro-2,2-dimethylpropanoyl)-N-(2-(4-(pyrazolo[1,5-b]pyridazin-3-yl)-1H-pyrrolo[2,3-b]pyridin-2-yl)ethyl)pyrrolidine-2-carboxamide] | 10000 to 100000 |
| < 100 | C=CC(=O)N1CCC[C@@H]1C(=O)NCCc1cc2c(-c3cnn4ncccc34)c(Cl)cnc2[nH]1 [Example 54, (R)-1-Acryloyl-N-(2-(5-chloro-4-(pyrazolo[1,5-b]pyridazin-3-yl)-1H-pyrrolo[2,3-b]pyridin-2-yl)ethyl)pyrrolidine-2-carboxamide] | < 1000 |
| < 100 | C=CC(=O)N1CCC[C@H](C(=O)NCCc2cc3c(-c4cnn5ncccc45)c(Cl)cnc3[nH]2)C1 [Example 55, (S)-1-Acryloyl-N-(2-(5-chloro-4-(pyrazolo[1,5-b]pyridazin-3-yl)-1H-pyrrolo[2,3-b]pyridin-2-yl)ethyl)piperidine-3-carboxamide] | 1000 to 10000 |
| 100 to 1000 | C=CC(=O)Nc1ccc(C(=O)NCc2cc3c(-c4cnn5ncccc45)ccnc3[nH]2)cc1 [Example 57, 4-Acrylamido-N-((4-(pyrazolo[1,5-b]pyridazin-3-yl)-1H-pyrrolo[2,3-b]pyridin-2-yl)methyl)benzamide] | 1000 to 10000 |
| < 100 | C=CC(=O)N1CCOC[C@@H]1C(=O)NCCc1cc2c(-c3cnn4ncccc34)ccnc2[nH]1 [Example 63, (R)-4-Acryloyl-N-(2-(4-(pyrazolo[1,5-b]pyridazin-3-yl)-1H-pyrrolo[2,3-b]pyridin-2-yl)ethyl)morpholine-3-carboxamide] | < 1000 |
| 100 to 1000 | CN(C)C/C=C/C(=O)N1CCC(CC(=O)N2CCC(c3cc4c(-c5cnn6ncccc56)ccnc4[nH]3)C2)CC1 (stereo not shown) [Example 69, (E)-4-(Dimethylamino)-1-(4-(2-oxo-2-(3-(4-(pyrazolo[1,5-b]pyridazin-3-yl)-1H-pyrrolo[2,3-b]pyridin-2-yl)pyrrolidin-1-yl)ethyl)piperidin-1-yl)but-2-en-1-one] | 10000 to 100000 |
| 100 to 1000 | C[C@@H](Cl)C(=O)N1CCC[C@@H]1C(=O)N1CCC(c2cc3c(-c4cnn5ncccc45)ccnc3[nH]2)C1 (stereo partly drawn) [Example 70, (2R)-2-Chloro-1-((2R)-2-(3-(4-(pyrazolo[1,5-b]pyridazin-3-yl)-1H-pyrrolo[2,3-b]pyridin-2-yl)pyrrolidine-1-carbonyl)pyrrolidin-1-yl)propan-1-one] | 1000 to 10000 |
| 100 to 1000 | CN(C)C/C=C/C(=O)N1CC[C@@H](OCC(=O)N2CCC(c3cc4c(-c5cnn6ncccc56)ccnc4[nH]3)C2)C1 (stereo partly drawn) [Example 71, (E)-4-(Dimethylamino)-1-((3R)-3-(2-oxo-2-(3-(4-(pyrazolo[1,5-b]pyridazin-3-yl)-1H-pyrrolo[2,3-b]pyridin-2-yl)pyrrolidin-1-yl)ethoxy)pyrrolidin-1-yl)but-2-en-1-one] | 1000 to 10000 |
| 100 to 1000 | CN(C)C/C=C/C(=O)N1CCC[C@@H](C(=O)N2CCC(c3cc4c(-c5cnn6ncccc56)ccnc4[nH]3)C2)C1 (stereo partly drawn) [Example 72, (E)-4-(Dimethylamino)-1-((3R)-3-(3-(4-(pyrazolo[1,5-b]pyridazin-3-yl)-1H-pyrrolo[2,3-b]pyridin-2-yl)pyrrolidine-1-carbonyl)piperidin-1-yl)but-2-en-1-one] | 1000 to 10000 |
| 1000 to 30000 | CCC(=O)N1CCC[C@H]1C(=O)NCCc1cc2c(-c3cnn4ncccc34)ccnc2[nH]1 [Example 73, (S)-1-Propionyl-N-(2-(4-(pyrazolo[1,5-b]pyridazin-3-yl)-1H-pyrrolo[2,3-b]pyridin-2-yl)ethyl)pyrrolidine-2-carboxamide] | 10000 to 100000 |
| < 100 | C=CC(=O)Nc1ccc(C(=O)NCCc2cc3c(-c4cnn5ncccc45)ccnc3[nH]2)cc1 [Example 76, 4-Acrylamido-N-(2-(4-(pyrazolo[1,5-b]pyridazin-3-yl)-1H-pyrrolo[2,3-b]pyridin-2-yl)ethyl)benzamide] | < 1000 |

Source: US11407767B2, “Heterocyclyl substituted pyrrolopyridines that are inhibitors of the CDK12 kinase” (The University of Nottingham, priority 2017, dated 2022)
